Data set [1] relates to Ku70-Ku80 full length (KuFL, His-Ku80) (human). In words: switchSENSE. As to conditions: Single-molecule: 20 mM Tris pH 7.5, 100 mM KCl, 2.5 mM MgCl2, 1 mg/mL BSA, 2 mM DTT, 0.8% glucose, 0.1% Trolox, 1% GLOX, 1 nM Ku, switchSENSE (15-240 nM Ku) ….
For another data set, the system named is HEK-293T cells. In words: Dual dEJ/HR reporter assay. It is filed as cell-based, human. As to conditions: versus control without inhibitors; for expression of the HR marker BFP / HR activity: NU7441 3 μM or B02 10 μM. The source says: The dEJ-HR dual reporter substrate for both direct end-joining and homologous recombination was assembled into the pEGFP-N1 vector (Clontech) following sequential insertion of various PCR products, oligonucleotide linkers and synthetic DNA fragments (see Supplementary Information for a detailed description). The Cas9 and guide RNA co-expression plasmid used to cleave the reporter substrate was generated by inserting the pre-annealed gRNA-dEJ-HR-F and gRNA-dEJ-HR-R oligonucleotides into the BbsI restriction sites of pX330-U6-Chimeric_BB-CBh-hSpCas9 (a gift from Feng Zhang; Addgene plasmid # 42230; http://n2t.net/addgene:42230; RRID:Addgene_42230). The pmCherry-NLS plasmid (a gift from Martin Offterdinger; Addgene plasmid # 39319; http://n2t.net/addgene:39319; RRID:Addgene_39319) was used as an internal control of transfection efficiency in end-joining assays.
Cell lines and cultures are described in Figure 5 legend. HEK-293T cells were seeded in 6-well plates and transfected 24 h later with a mix of reporter substrate (500 ng), Cas9/gRNA expressing vector (300 ng) and pmCherry-NLS control plasmid (200 ng) using JetPEI (PolyPlus-Transfection, Illkirch-Graffenstaden, France). When indicated, cells were treated at the time of transfection with 3 μM DNA-PK inhibitor NU7441 (Tocris, Bristol, UK) or 10 μM Rad51 inhibitor B02 (Sigma-Aldrich St. Louis, MO). Cells were trypsinized 2 days post-transfection, washed with PBS and analysed by flow cytometry on a Fortessa X-20 cell analyzer (BD Biosciences). For each cell population, the integrated fluorescence signal (% positive cells × mean fluorescence) was calculated for each repair readout (i.e. GFP for direct end-joining and BFP for gene conversion) and normalized to that of transfection control (mCherry). Western blots, antibodies, oligonucleotides, plasmids and DNA manipulations, generation of U2OS shKu80 cells and generation of HEK-293T mAID-Ku70/mAID-Ku80 cells are described in Supplemental Information.

Data set [2] has as its target T1, KuFL (full-length human Ku70–Ku80 heterodimer) (Homo sapiens, UniProt P12956+P13010).
T1 construct: The full-length human Ku heterodimer subunits (Ku70 1–609, Ku80 1–732); 10x His-tag with TEV site (N); made in house; host or cells: Sf21 insect cells (baculovirus, MultiBac)
In words: Isothermal titration calorimetry (ITC), KuFL with IP6 and IP6 analogues. It is filed as binding. Conditions: 25 °C, Ku 4 µM in cell, IPs 40 µM in syringe. Here is the method:
Purification of Ku full-length (KuFL) for cryo-EM experiments was carried out as described previously ([5]). Expression and purification of KuFL for biophysical experiments was carried out as described previously ([20]). The full-length human Ku heterodimer subunits (Ku70 1–609, Ku80 1–732) were cloned into a Multibac vector ([21]). The construct has a 10× His-tag and a TEV site on the N-terminus of Ku80 and no-tag on Ku70. Protein production was initiated in Sf21 cells by infection with the baculovirus stock at MOI of 5 × 10^−3 and cells were collected 5–6 days after the infection (3–4 days after the proliferation arrest). Cells were sonicated and the supernatant was incubated with Benzonase (300 units for 30 min at 4°C). The Ku heterodimer was purified on a NiNTA-Agarose affinity column (Protino, Macherey Nagel) with a 1 M NaCl wash step to remove DNA excess. The eluted Ku was then bound onto an anion exchange column (Resource Q, Cytiva) equilibrated in 20 mM Tris pH 8.0, 50 mM NaCl, 50 mM KCl, 10 mM β-mercaptoethanol and eluted with a salt gradient. The final yield was about 20 mg of purified heterodimer per litre of culture. KuΔC constructs, heterodimer deleted of its C-terminal region (Ku70 1–544, Ku80 1–551) for X-ray crystallography, Ku mutants, Ku-2E (Ku with mutation in K357E on Ku70 and K481E on Ku80) and Ku-4E (Ku with mutations in H359E and H360E on Ku70 and K413E and H414E on Ku80) were cloned in the same vector and produced following the same protocol as KuFL expressed in Sf21 insect cells.
Calorimetry. Interactions between KuFL and inositol phosphates (IPs) (IP6 and IP6 analogues) were determined by Isothermal Titration Calorimetry (ITC) using a VP-ITC calorimeter (Malvern). Prior to measurements, all solutions were degassed under vacuum. The reaction cell of the ITC (volume 1.8 mL) was loaded with Ku heterodimers at 4 µM concentration. […] The free energy of binding (ΔG) and the entropy (ΔS) were determined using the classical thermodynamic formula, ΔG = - RT ln(Ka) and ΔG = ΔH - TΔS. […]

Data set [3] relates to HEK-293T cells expressing Ku-wt. In words: Cell fractionation and western blot of chromatin and soluble fractions. The data set is classed as cell-based, human. As to conditions: 1 h. Here is the method:
Stock solution of Calicheamicin γ1 (Cali), gift from P.R. Hamann (Wyeth Research, Pearl River, NY, USA), was made at 40 μM in ethanol and stored at –20°C. For drug-exposure, exponentially growing cells in […] were either mock-treated or treated with Cali in fresh medium for 1 h at 37°C. Then cells were washed with phosphate-buffered saline and trypsinized. Pellets were fractionated as follows. Cells were first resuspended for 7 min on ice in 120 μL of extraction buffer 1 (50 mM HEPES pH 7.5, 150 mM NaCl, 1 mM EDTA) containing 0.1% Triton X-100 and supplemented with the Halt protease and phosphatase inhibitor cocktail (Thermo Fisher Scientific) with intermittent gentle vortexing. […] Protein content was measured with BCA reagent (Pierce) and equivalent protein amounts were denaturated in loading buffer at 1× final concentration (50 mM Tris–HCl pH 6.8, 10% glycerol, 1% SDS, 300 mM 2-mercaptoethanol, 0.01% bromophenol blue) at 95°C for 5 min, separated on SDS-PAGE gels (BioRad 4–15% TGX pre-cast gels) before overnight transfer onto Immobilon-P polyvinylidene difluoride (PVDF, Millipore) membranes. […]

Data set [4] addresses full-length human Ku70–Ku80 heterodimer (KuFL), expressed in Sf21 insect cells (human) (UniProt P12956). In words: switchSENSE; fluorescent DNA hybridised on the gold surface of the chip, Ku bound to this DNA in saturating conditions, then XLF injected (1, 2 and 8 μM); absence of IP6; biphasic, two steps binding mode fit; apparent affinities.
Data set [5] has the same target. In words: switchSENSE; fluorescent DNA hybridised on the gold surface of the chip, Ku bound to this DNA in saturating conditions, then XLF injected (1, 2 and 8 μM); 20 μM IP6 during Ku association and XLF titration; biphasic, two steps binding mode fit; apparent affinities.

Structures can show the parent of a compound that is named as a salt.

Here are results for seven compounds from article PMC10682503, “Structural and functional basis of inositol hexaphosphate stimulation of NHEJ through stabilization of Ku-XLF interaction” (Nucleic Acids Research, 2023).

Chain of full-length human Ku70–Ku80 heterodimer (KuFL), expressed in Sf21 insect cells (human) (P12956 whole entry, chain 1 of 2): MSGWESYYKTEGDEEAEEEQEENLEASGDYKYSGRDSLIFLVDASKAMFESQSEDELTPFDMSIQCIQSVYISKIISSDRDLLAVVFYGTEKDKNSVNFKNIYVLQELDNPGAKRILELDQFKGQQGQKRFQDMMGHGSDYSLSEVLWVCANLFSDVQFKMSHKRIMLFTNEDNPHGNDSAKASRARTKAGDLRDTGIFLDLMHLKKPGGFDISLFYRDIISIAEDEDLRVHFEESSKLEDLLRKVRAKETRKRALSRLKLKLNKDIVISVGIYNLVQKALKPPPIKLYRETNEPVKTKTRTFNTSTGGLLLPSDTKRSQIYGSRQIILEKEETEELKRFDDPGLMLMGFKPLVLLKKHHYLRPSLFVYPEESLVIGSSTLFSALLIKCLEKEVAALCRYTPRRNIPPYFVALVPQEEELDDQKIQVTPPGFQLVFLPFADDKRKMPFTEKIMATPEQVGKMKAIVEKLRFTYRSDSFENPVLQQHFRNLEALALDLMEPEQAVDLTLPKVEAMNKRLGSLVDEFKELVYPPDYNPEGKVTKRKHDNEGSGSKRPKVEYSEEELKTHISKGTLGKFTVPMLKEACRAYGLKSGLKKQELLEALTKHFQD
Chain of full-length human Ku70–Ku80 heterodimer (KuFL), expressed in Sf21 insect cells (human) (P13010 whole entry, chain 2 of 2, further chain): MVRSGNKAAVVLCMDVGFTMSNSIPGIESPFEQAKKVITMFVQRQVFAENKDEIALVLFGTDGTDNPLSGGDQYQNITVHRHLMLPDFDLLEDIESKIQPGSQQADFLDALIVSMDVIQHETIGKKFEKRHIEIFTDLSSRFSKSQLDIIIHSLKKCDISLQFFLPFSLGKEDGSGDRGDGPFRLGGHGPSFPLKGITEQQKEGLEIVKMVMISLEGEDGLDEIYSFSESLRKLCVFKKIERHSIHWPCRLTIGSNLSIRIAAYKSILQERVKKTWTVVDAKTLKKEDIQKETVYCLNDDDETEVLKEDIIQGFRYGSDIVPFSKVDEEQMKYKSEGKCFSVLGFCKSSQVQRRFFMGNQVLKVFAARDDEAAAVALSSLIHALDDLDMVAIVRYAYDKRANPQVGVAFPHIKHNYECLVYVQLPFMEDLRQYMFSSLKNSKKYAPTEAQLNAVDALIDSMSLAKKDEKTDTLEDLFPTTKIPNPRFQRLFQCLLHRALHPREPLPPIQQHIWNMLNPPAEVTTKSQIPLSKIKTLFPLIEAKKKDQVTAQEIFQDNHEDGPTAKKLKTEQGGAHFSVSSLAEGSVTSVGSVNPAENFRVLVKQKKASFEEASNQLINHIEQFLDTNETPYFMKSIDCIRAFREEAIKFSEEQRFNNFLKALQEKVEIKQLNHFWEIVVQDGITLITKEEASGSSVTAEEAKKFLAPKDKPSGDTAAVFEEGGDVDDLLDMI
Chain of XLF (Q9H9Q4 whole entry): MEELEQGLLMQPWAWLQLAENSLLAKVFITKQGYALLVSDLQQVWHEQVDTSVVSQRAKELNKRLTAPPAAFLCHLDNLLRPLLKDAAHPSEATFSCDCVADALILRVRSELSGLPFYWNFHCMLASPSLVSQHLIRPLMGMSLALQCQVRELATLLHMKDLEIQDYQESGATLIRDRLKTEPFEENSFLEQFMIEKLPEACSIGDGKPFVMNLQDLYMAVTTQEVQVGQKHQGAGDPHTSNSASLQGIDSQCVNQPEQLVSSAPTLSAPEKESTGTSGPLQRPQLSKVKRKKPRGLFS
T1 sequence (P12956 whole entry): as the sequence (P12956 whole entry, chain 1 of 2) above
T1 sequence (P13010 whole entry): as the sequence (P13010 whole entry, chain 2 of 2, further chain) above

As usually defined, the Kd is a measure of binding affinity in units of concentration. With 48 bp dsDNA (switchSENSE), the Kd was 1.99 nM in data set [1] (3 uM IP6, kon 6.35e5 M-1 s-1, koff 1.27e-3 s-1) and 3.25 nM in data set [1] (no IP6, kon 6.94e5 M-1 s-1, koff 2.26e-3 s-1).

As for `O=c1c2ccccc2nc(/C=C/c2cccnc2)n1Cc1ccccc1` [B02], the “expression of the HR marker BFP / HR activity” value in the data set on HEK-293T cells is “decreased”.

`O=P(O)(O)OC1C(OP(=O)(O)O)C(OP(=O)(O)O)C(OP(=O)(O)O)C(OP(=O)(O)O)C1OP(=O)(O)O` [D-chiro-IP6, D-chiro-inositol 1,2,3,4,5,6-hexakisphosphate sodium salt] displayed a Kd in data set [2] of 22 ± 6.8 nM.

Consider `O=c1cc(N2CCOCC2)oc2c(-c3cccc4c3sc3ccccc34)cccc12` [NU7441], for which the “expression of the HR marker BFP / HR activity” value with HEK-293T cells was “compensatory increase in HR”. Besides, the “expression of the direct EJ (dEJ) marker GFP” value in the data set with HEK-293T cells (NU7441 3 μM) is listed as “decreased”.

Consider `O=P(O)(O)O[C@H]1[C@H](OP(=O)(O)O)[C@@H](OP(=O)(O)O)[C@H](OP(=O)(O)O)[C@@H](OP(=O)(O)O)[C@H]1OP(=O)(O)O` [scyllo-IP6, scyllo-inositol hexakisphosphate sodium salt], for which, in data set [2], the affinity, expressed as Kd, was 18 ± 2.5 nM.

With Calicheamicin γ1, the “XLF, Lig4 and PAXX in the soluble proteins fraction” value in data set [3] (highest dose of calicheamicin) is “depleted from the soluble proteins fraction”. For the same compound, the “NHEJ proteins including XLF and PAXX in the chromatin fraction” value in data set [3] (increasing concentrations of calicheamicin) is on record as “increasingly detected in the chromatin fraction”.

Take “XLF (from UniProt Q9H9Q4 1-299) (natural protein)”: in data set [4], the KD1 (first of two apparent affinities, biphasic fit; without IP6) was 3.6 µM and the KD2 (second of two apparent affinities, biphasic fit; without IP6) was 1.9 µM. In data set [5], the KD1 (first of two apparent affinities, biphasic fit; with 20 μM IP6) turned out to be 1.2 µM and the KD2 (second of two apparent affinities, biphasic fit; with 20 μM IP6) came out at 0.13 µM.
